Where a name gives a salt, the structure may show the parent alone.
Tests used:
Assay type in all cases: cell-based
[1] = system: M. abscessus clinical isolate Stanford A; experiment: Intracellular CFU in M. abscessus infected THP-1 cells (THP-1 NTM model), Stanford A
Procedure: (§1) THP-1 cells were seeded in PMA and cultured for 48 hours, exposed to M. abscessus (type strain 19977 or clinical isolate Stanford A or NIH26) at multiplicity of infection (MOI) of approx. 2 for 1 hour followed by incubation with […] amikacin sulfate for 23 hours to reduce the extracellular NTM population. Liposomal amikacin formulations were added at 16, 32, 64, and 128 μg/mL of active concentration and incubated for 24 hours at 37° C. At the end of four 24 hour treatment cycles, cells were washed, lysed, serially diluted, plated, and incubated at 37° C. for 4 days to determine final intracellular CFU counts. Formulations were loaded with streptomycin and tested against the M. abscessus strains 19977 and Stanford A. Results are shown in Table 8.

[2] = system: M. abscessus type strain 19977; experiment: Intracellular CFU in M. abscessus infected THP-1 cells (THP-1 NTM model), strain 19977
Procedure: as §1

[3] = system: M. abscessus clinical isolate NIH26; experiment: Intracellular CFU in M. abscessus infected THP-1 cells (THP-1 NTM model), NIH26; details: NIH 26, 128 μg/mL amikacin
Procedure: as §1, with “counts.” for “counts. Formulations were loaded with streptomycin and tested against the M. abscessus strains 19977 and Stanford A. Results are shown in Table 8.”

[4] = 128 μg/mL amikacin, vs pretreatment
[5] = 128 μg/mL streptomycin sulfate, vs pretreatment

SMILES | In vitro killing (CFU remaining after 96 h treatment with 128 μg/mL ami-in THP-1 NTM model) ([1]; 128 μg/mL amikacin) [CFU] | In vitro killing (additional % CFU killed compared to pretreatment after 96 h treatment with 128 μg/mL ami in THP-1 NTM model) [1, 4] [%] | In vitro killing (CFU remaining after 96 h treatment with 128 μg/mL ami-in THP-1 NTM model) ([2]; 128 μg/mL amikacin) [CFU] | In vitro killing (additional % CFU killed compared to pretreatment after 96 h treatment with 128 μg/mL ami in THP-1 NTM model) [2, 4] [%] | In vitro killing (CFU remaining after 96 h treatment with 128 μg/mL ami-in THP-1 NTM model) [3] [CFU] | In vitro killing (additional % CFU killed compared to pretreatment after 96 h treatment with 128 μg/mL ami in THP-1 NTM model) ([3]; vs pretreatment) [%] | In vitro killing (CFU remaining after 96 h treatment with 128 μg/mL streptomycin sulfate in THP-1 NTM model) ([1]; 128 μg/mL streptomycin sulfate) [CFU] | In vitro killing (addtl. % CFU killed compared to pretreatment after 96 h treatment with 128 μg/mL streptomycin sulfate in THP-1 NTM model) [1, 5] [%] | In vitro killing (CFU remaining after 96 h treatment with 128 μg/mL streptomycin sulfate in THP-1 NTM model) ([2]; 128 μg/mL streptomycin sulfate) [CFU] | In vitro killing (addtl. % CFU killed compared to pretreatment after 96 h treatment with 128 μg/mL streptomycin sulfate in THP-1 NTM model) [2, 5] [%]
NCC[C@H](O)C(=O)N[C@@H]1C[C@H](N)[C@@H](O[C@H]2O[C@H](CN)[C@@H](O)[C@H](O)[C@H]2O)[C@H](O)[C@H]1O[C@H]1O[C@H](CO)[C@@H](O)[C@H](N)[C@H]1O [free ami, amikacin] | 135000 | 75 | 135000 | 50.1 | 214667 | 37.4 |  |  |  | 
[H]/N=C(/N)N[C@H]1[C@H](O)[C@@H](O)[C@H](O[C@@H]2O[C@@H](C)[C@](O)(C=O)[C@H]2O[C@@H]2O[C@@H](CO)[C@H](O)[C@@H](O)[C@@H]2NC)[C@@H](N/C(N)=N\[H])[C@@H]1O [free streptomycin sulfate, streptomycin sulfate] |  |  |  |  |  |  | 424000 | 27.4 | 408000 | 35.8

Source: patent publication US20170165374A1, “COMPOSITIONS AND METHODS FOR TREATING BACTERIAL INFECTIONS” (Insmed, Inc., priority 2015, published 2017)
